The text below walks through data of patent publication US20210087248A1, “MODIFIED FIBROBLAST GROWTH FACTOR 1 (FGF-1) POLYPEPTIDES WITH INCREASED BINDING AFFINITY FOR HEPARIN AND ASSOCIATED METHODS” (Florida State University Research Foundation, Inc., priority 2014, published 2021).

Common to all, as to experiment: Heparin affinity study with isothermal titration calorimetry (ITC), sucrose octasulfate titration
Assay type in all cases: binding
What all share (conditions): 25 °C

Experiment [1] has as its target T1, human FGF-1 variant S116K (Ser116Lys), N-terminal six His tag (hisFGF S116K), SEQ ID NO: 3 (Homo sapiens, UniProt P05230, S131K).
T1 construct: six His tag (N); made in house; host or cells: E. coli BL21(DE3), pET21a (+)
From the text: (§1) A codon-optimized synthetic gene encoding 140 amino acids form of human FGF-1 (SEQ ID NO: 1) with an N-terminal six His tag was cloned into the pET21a (+) expression vector. The His tag has shown no influence upon stability, heparin affinity and mitogenic activity. Residue Ser116 inside of the heparin binding site of FGF-1 was mutated to Arginine (SEQ ID NO: 2) and Lysine (SEQ ID NO: 3) individually to increase potential ionic interactions with the sulfonate groups in HSGAG. This was achieved using a QUICKCHANGE site-directed mutagenesis protocol.
(§2) Each mutation was confirmed by DNA sequencing. The pET21a (+)/BL21(DE3) E. coli host expression system was used to express the FGF-1 heparin affinity mutants. The expressed polypeptide was purified via sequential nickel-nitrilotriacetic acid (Ni-NTA) column (Qiagen) and heparin Sepharose resin (GE Life Sciences, Pittsburgh Pa.). Previous studies of wild-type FGF-1 have shown that the above purification procedure results in protein >99% pure and appropriate for all biophysical studies.
(§3) Purified modified FGF-1 samples of SEQ ID NOs: 2 and 3 were dialyzed into 20 mM N-(2-acetamido) iminodiacetic acid (ADA), 100 mM NaCl, pH 7.4 for an ITC study. An iTC200 microcalorimeter (MicroCal) was used for data collection. […] The ITC running parameters were: 31 injections; first injection volume 0.5 μl and the rest of the injections 1 μl; temperature 25° C.; reference power 5. The titration curve after baseline subtraction was fitted with a single ligand-binding site model by manufacturer's software (MicroCal Origin). At least three independent trials were collected for each modified FGF-1 samples.

For experiment [2], the target named is T2, human FGF-1 variant S116R (Ser116Arg), N-terminal six His tag (hisFGF S116R), SEQ ID NO: 2 (Homo sapiens, UniProt P05230, S131R).
T2 construct: six His tag (N); made in house; host or cells: E. coli BL21(DE3), pET21a (+)
T2 sequence (P05230 16-155 S131R): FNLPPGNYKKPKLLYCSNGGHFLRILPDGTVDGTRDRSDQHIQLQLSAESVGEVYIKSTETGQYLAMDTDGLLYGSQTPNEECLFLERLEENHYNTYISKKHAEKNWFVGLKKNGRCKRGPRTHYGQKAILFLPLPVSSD
Excerpt: as §1, §2, §3

Experiment [3] concerns the target human FGF-1 wild-type, no histag (no histag FGF wild-type), SEQ ID NO: 1 (Homo sapiens, UniProt P05230).
In experiment [4] the target is T3, human FGF-1 wild-type, 140 amino acid form, N-terminal six His tag (hisFGF wild-type), SEQ ID NO: 1 (Homo sapiens, UniProt P05230).
T3 construct: six His tag (N); made in house; host or cells: pET21a(+) vector; E. coli BL21(DE3) is stated for the mutants, inferred for the wild type
T3 sequence (P05230 16-155): as the sequence (P05230 16-155 S131R) above, with R116S counted along it

Where [5] appears, read: single ligand-binding site model.

T1 sequence (P05230 16-155 S131K): as the sequence (P05230 16-155 S131R) above, with R116K counted along it
Chain of human FGF-1 wild-type, no histag (no histag FGF wild-type), SEQ ID NO: 1 (P05230 16-155 limits assumed): as the sequence (P05230 16-155 S131R) above, with R116S counted along it

As a reminder, the Kd is the constant that tells how readily two partners part at equilibrium. A high value points to weaker binding. Take `O=S(=O)(O)OC[C@H]1O[C@@](COS(=O)(=O)O)(O[C@H]2O[C@H](COS(=O)(=O)O)[C@@H](OS(=O)(=O)O)[C@H](OS(=O)(=O)O)[C@H]2OS(=O)(=O)O)[C@@H](OS(=O)(=O)O)[C@@H]1OS(=O)(=O)O` [sucrose octasulfate]: the Kd in experiment [1] (20 mM ADA, 100 mM NaCl, pH 7.4) came to 3.1 ± 0.47 µM; in experiment [2] (20 mM ADA, 100 mM NaCl, pH 7.4), 2.46 ± 0.25 µM; in experiment [3] (20 mM ADA, 100 mM NaCl, pH 7.4) it was 3.85 ± 0.09 µM; in experiment [4] (20 mM ADA, 100 mM NaCl, pH 7.4), 3.94 ± 0.19 µM. Also, the ΔH entry is “(−3339) ± 57 cal/mol” in experiment [1] (pH 7.4), “(−7081) ± 217 cal/mol” in experiment [2] (pH 7.4), “(−6963) ± 65 cal/mol” in experiment [3] (pH 7.4) and “(−7506) ± 95 cal/mol” in experiment [4] (pH 7.4). Moreover, the ΔS entry in experiment [1] (pH 7.4) was “(−6.42) ± 3.04 cal/mol/deg”; in experiment [2] (pH 7.4), 1.84 ± 0.92 cal/mol/deg; in experiment [3] (pH 7.4), 1.42 ± 0.18 cal/mol/deg; in experiment [4] (pH 7.4) it was “(−0.44) ± 0.23 cal/mol/deg”. The “N (site)” value in experiment [1] (setting [5]) amounted to 1.012 ± 0.014; in experiment [2] (setting [5]) it was 0.942 ± 0.036; in experiment [3] (setting [5]), 0.980 ± 0.035; in experiment [4] (setting [5]), 0.917 ± 0.050.
